Measurements as given in ChEMBL document CHEMBL5647688, “Mitogen-activated protein kinase (MEK/ERK) inhibition sensitizes cancer cells to centromere-associated protein E inhibition” (Int J Cancer, 2013).

How the values were obtained:
Format in all cases: functional
[1] = test system: ASPC1; test: Synergistic cytotoxicity against human ASPC1 cells assessed as combination index at ED 50 measured after 72 hrs in presence of MEK inhibitor GSK1120212 by Cell-titer Glo reagent assay
[2] = test system: MIA PaCa-2; test: Synergistic cytotoxicity against human MIA PaCa-2 cells expressing KRAS mutant assessed as combination index at ED 50 measured after 72 hrs in presence of MEK inhibitor GSK1120212 by Cell-titer Glo reagent assay
[3] = test system: Calu-6; test: Synergistic cytotoxicity against human Calu-6 cells expressing KRAS mutant assessed as combination index at ED 50 measured after 72 hrs in presence of MEK inhibitor GSK1120212 by Cell-titer Glo reagent assay
[4] = test system: SK-N-FI; test: Synergistic cytotoxicity against human SK-N-FI cells assessed as combination index at ED 50 measured after 72 hrs in presence of temozolomide by Cell-titer Glo reagent assay
[5] = test system: NCI-H460; test: Synergistic cytotoxicity against human NCI-H460 cells expressing KRAS mutant assessed as combination index at ED75 measured after 72 hrs in presence of MEK inhibitor GSK1120212 by Cell-titer Glo reagent assay
[6] = test system: HPAF-II; test: Synergistic cytotoxicity against human HPAF-II cells expressing KRAS mutant assessed as combination index at ED75 measured after 72 hrs in presence of MEK inhibitor GSK1120212 by Cell-titer Glo reagent assay
[7] = test system: HCT-116; test: Synergistic cytotoxicity against human HCT-116 cells expressing KRAS mutant assessed as combination index at ED75 measured after 72 hrs in presence of MEK inhibitor GSK1120212 by Cell-titer Glo reagent assay
[8] = test system: NCI-H2122; test: Synergistic cytotoxicity against human NCI-H2122 cells expressing KRAS mutant assessed as combination index at ED75 measured after 72 hrs in presence of MEK inhibitor GSK1120212 by Cell-titer Glo reagent assay
[9] = test system: SK-N-FI; test: Synergistic cytotoxicity against human SK-N-FI cells assessed as combination index at ED 75 measured after 72 hrs in presence of SN-38 and temozolomide by Cell-titer Glo reagent assay
[10] = test system: HuP-T4; test: Synergistic cytotoxicity against human HuP-T4 cells expressing KRAS mutant assessed as combination index at ED 50 measured after 72 hrs in presence of MEK inhibitor GSK1120212 by Cell-titer Glo reagent assay
[11] = test system: Capan-2; test: Synergistic cytotoxicity against human Capan-2 cells expressing KRAS mutant assessed as combination index at ED75 measured after 72 hrs in presence of MEK inhibitor GSK1120212 by Cell-titer Glo reagent assay
[12] = test system: NCI-H1299; test: Synergistic cytotoxicity against human NCI-H1299 cells expressing NRAS mutant assessed as combination index at ED 50 measured after 72 hrs in presence of MEK inhibitor GSK1120212 by Cell-titer Glo reagent assay
[13] = test system: YAPC; test: Synergistic cytotoxicity against human […] cells expressing KRAS mutant assessed as combination index at ED75 measured after 72 hrs in presence of MEK inhibitor GSK1120212 by Cell-titer Glo reagent assay
[14] = test system: NCI-H2170; test: Synergistic cytotoxicity against human NCI-H2170 cells assessed as combination index at ED 50 measured after 72 hrs in presence of MEK inhibitor GSK1120212 by Cell-titer Glo reagent assay
[15] = test system: NCI-H2030; test: Synergistic cytotoxicity against human NCI-H2030 cells expressing KRAS mutant assessed as combination index at ED75 measured after 72 hrs in presence of MEK inhibitor GSK1120212 by Cell-titer Glo reagent assay
[16] = test system: SK-N-FI; test: Synergistic cytotoxicity against human SK-N-FI cells assessed as combination index at ED 50 measured after 72 hrs in presence of SN-38 and temozolomide by Cell-titer Glo reagent assay
[17] = test system: SK-N-FI; test: Synergistic cytotoxicity against human SK-N-FI cells assessed as combination index at ED 50 measured after 72 hrs in presence of SN-38 by Cell-titer Glo reagent assay
[18] = test system: YAPC; test: Synergistic cytotoxicity against human […] cells expressing KRAS mutant assessed as combination index at ED 50 measured after 72 hrs in presence of MEK inhibitor GSK1120212 by Cell-titer Glo reagent assay
[19] = test system: SW-620; test: Synergistic cytotoxicity against human SW620 cells expressing KRAS mutant assessed as combination index at ED75 measured after 72 hrs in presence of MEK inhibitor GSK1120212 by Cell-titer Glo reagent assay
[20] = test system: NCI-H2030; test: Synergistic cytotoxicity against human NCI-H2030 cells expressing KRAS mutant assessed as combination index at ED 50 measured after 72 hrs in presence of MEK inhibitor GSK1120212 by Cell-titer Glo reagent assay
[21] = test system: NB-1691; test: Synergistic cytotoxicity against human NB-1691 cells assessed as combination index at ED 50 measured after 72 hrs in presence of temozolomide by Cell-titer Glo reagent assay
[22] = test system: NCI-H1792; test: Synergistic cytotoxicity against human NCI-H1792 cells expressing KRAS mutant assessed as combination index at ED75 measured after 72 hrs in presence of MEK inhibitor GSK1120212 by Cell-titer Glo reagent assay
[23] = test system: NB-1691; test: Synergistic cytotoxicity against human NB-1691 cells assessed as combination index at ED 75 measured after 72 hrs in presence of temozolomide by Cell-titer Glo reagent assay
[24] = test system: NCI-H1563; test: Synergistic cytotoxicity against human NCI-H1563 cells assessed as combination index at ED 50 measured after 72 hrs in presence of MEK inhibitor GSK1120212 by Cell-titer Glo reagent assay
[25] = test system: SW900; test: Synergistic cytotoxicity against human SW900 cells expressing KRAS mutant assessed as combination index at ED 50 measured after 72 hrs in presence of MEK inhibitor GSK1120212 by Cell-titer Glo reagent assay
[26] = test system: SW1990; test: Synergistic cytotoxicity against human SW1990 cells expressing KRAS mutant assessed as combination index at ED75 measured after 72 hrs in presence of MEK inhibitor GSK1120212 by Cell-titer Glo reagent assay
[27] = test system: SK-N-FI; test: Synergistic cytotoxicity against human SK-N-FI cells assessed as combination index at ED 75 measured after 72 hrs in presence of concurrent treatment of […] inhibitor CI-1040 by Cell-titer Glo reagent assay
[28] = test system: NCI-H520; test: Synergistic cytotoxicity against human NCI-H520 cells assessed as combination index at ED 50 measured after 72 hrs in presence of MEK inhibitor GSK1120212 by Cell-titer Glo reagent assay
[29] = test system: A549; test: Synergistic cytotoxicity against human A549 cells expressing KRAS mutant assessed as combination index at ED75 measured after 72 hrs in presence of MEK inhibitor GSK1120212 by Cell-titer Glo reagent assay
[30] = test system: HCT-116; test: Synergistic cytotoxicity against human HCT-116 cells expressing KRAS mutant assessed as combination index at ED 50 measured after 72 hrs in presence of MEK inhibitor GSK1120212 by Cell-titer Glo reagent assay

## CC(C)Oc1ccc(C(=O)N[C@H](CNC(=O)CN(C)C)Cc2ccc(-c3cn4cccc([C@H](C)O)c4n3)cc2)cc1Cl [GSK-923295A]
[1]
  CI: 0.566
[2]
  CI: 0.394
[3]
  CI: 0.556
[4]
  CI: 0.837
[5]
  CI: 0.294
[6]
  CI: 0.473
[7]
  CI: 0.384
[8]
  CI: 0.796
[9]
  CI: 1.058
[10]
  CI: 0.452
[11]
  CI: 0.153
[12]
  CI: 0.382
[13]
  CI: 1.31
[14]
  CI: 0.37
[15]
  CI: 2.329
[16]
  CI: 0.67
[17]
  CI: 1.845
[18]
  CI: 0.659
[19]
  CI: 0.289
[20]
  CI: 0.308
[21]
  CI: 0.405
[22]
  CI: 0.482
[23]
  CI: 0.241
[24]
  CI: 0.405
[25]
  CI: 0.705
[26]
  CI: 0.103
[27]
  CI: 0.379
[28]
  CI: 0.842
[29]
  CI: 0.402
[30]
  CI: 0.695
